# US20170281676A1, “HIV-CURE” (Lupus Foundation of Gainesville, priority 2016, published 2017)
# Like-named read-outs stand apart in the source and are kept apart here.
# Assays:
# [1] = system: Feline Immunodeficiency Virus (FIV); settings: by denaturing their molecules; cited from earlier work
# HIV [2] = settings: by denaturing their molecules; cited from earlier work
# [3] = in vivo; cited from earlier work
# [4] = most animal species; cited from earlier work
# [5] = monkeys, 100 ppm for 2 years; cited from earlier work
# [6] = humans exposed in workplace; cited from earlier work
# [7] = water, alcohol, and organic solvents; cited from earlier work
# [8] = mice, cited from earlier work
# HIV virus [9] = settings: cited from earlier work
# [10] = in vivo; cited from earlier work; remark: listed apart in the source
# [11] = system: bloodstream catheter-related infections; settings: injected preventively in central venous catheters; cited from earlier work
# HIV-1 = settings: cited from earlier work
# HIV virus [12] = settings: surfaces, 70% v/v ethanol, cited from earlier work
# [13] = system: human macrophage hybridoma cell line and primary monocytes; settings: ethanol equivalent to 115, 345 and 690 mg/dl, 16 hours, then infected with HIV-1; cited from earlier work
# [14] = system: primary human brain microvascular endothelial cells; settings: concentrations equivalent to 79 mg/dl and 237 mg/dl; cited from earlier work
# [15] = in vivo; cited from earlier work; remark: listed apart in the source
# [16] = in vivo; cited from earlier work; remark: listed apart in the source
# [17] = human, in vivo
# Description: (§1) A person was brought to the emergency room by ambulance. The inventor was called to intubate for respiratory support. […] They were intubated with propofol and admitted to ICU. […] During the ICU stay, they were maintained in coma with propofol infusions and some opioid analgesics and muscle paralyzers, intubated and mechanically ventilated. Fluids given were mostly Ringer's lactate and dextrose 5% in water. Due to lack of history, the ICU staff assumed they were a chronic alcoholic. […] So, they treated the patient with ethanol infusion, trying to decrease the level slowly over days.
# HIV [18] = settings: HIV-positive person, 2 years after discharge; earlier viral load 60,000 copies per ml; never on antiretroviral medication
# Description: as §1
# [19] = human, in vivo; remark: listed apart in the source
# [20] = system: peripheral blood lymphocytes; settings: concentrations 300-790 mg/dl; cited from earlier work
structure (smiles),measurement,setting,value
OCCO [ethylene glycol],inactivation of FIV in vitro,[1],inactivate
same,inactivation of HIV in vitro,HIV [2],inactivate
CO [methanol],inactivation of FIV in vitro,[1],inactivate
same,inactivation of HIV in vitro,HIV [2],inactivate
CC(C)O [isopropanol],inactivation of FIV in vitro,[1],inactivate
same,serum elimination half-life,[3],2.5 to 8 h
same,inactivation of HIV in vitro,HIV [2],inactivate
same,median lethal dose,[4],4000 mg/kg
C1CO1 [ethylene oxide],mortality,[5],did not have increased mortality
same,mortality,[6],no increase in mortality
same,solubility,[7],dissolves easily
same,mortality,[8]; 100 ppm for 2 years,did not have increased mortality
same,mortality,[8]; exposure to 400 ppm for 14 days,no death
same,mortality,[8]; higher levels like 800 ppm,deadly in 4 hours
CCO [ethanol],damage to the product,"HIV virus [9]; human albumin and plasma products at 18,000 mg/dl and higher",no damage to the product was caused
same,concentration used for in vitro inactivation of HIV virus,"HIV virus [9]; human albumin and plasma products, and even higher","≥ 18,000 mg/dl"
same,blood level at usual starting of a comatose state,[10],400 mg/dL
same,risk of bloodstream catheter-related infections,[11],decrease the risk
same,inactivation of FIV in vitro,[1],inactivate
same,"HIV-1 replication, another study","HIV-1; ethanol tested at 115, 345 and 690 mg/dl",same results
same,HIV-1 replication,"HIV-1; human peripheral blood mononuclear cells, levels at the range of 400 mg/dl or less",increase the HIV-1 replication
same,inactivation of HIV in vitro,HIV [2],inactivate
same,time of contact needed for the inactivation of HIV virus,"HIV virus [12]; in some conditions, up to",up to 4 minutes
same,time of contact needed for the inactivation of HIV virus,HIV virus [12],2 min
same,effects in the immunogenic tests of the cells,[13],immunosuppressive effects
same,apoptosis induced by HIV-1 proteins,[14],strongly potentiate
same,factor between breath and blood concentrations,[15],around 2300
same,rise of serum concentration after loading dose,[15],about 100 mg/dL
same,placental penetration,[16],penetrates well the placenta
same,permanent organ damage,[17],without causing any permanent organ damage
same,HIV viral load,HIV [18],undetectable
same,time to reach a level below 100 mg/dl,[19],16 to 20 h
same,HIV DNA in peripheral blood lymphocytes and their proliferation,[20],increase
